This passage reports Activity and logKw results from ChEMBL document CHEMBL3045144, “Relationship between physicochemical properties and herbicidal activity of 1,2,5-oxadiazole N-oxide derivatives” (Molecules, 2005).

For series [1], the system named is Triticum aestivum. Description: Pre-emergence herbicidal activity against Triticum aestivum L. (wheat) assessed change in leaf length. In kind it is functional. Further details: concentration or dose not given beside the values.
Series [2] deals with Triticum aestivum. The experiment in a line: Pre-emergence herbicidal activity against Triticum aestivum L. (wheat) assessed change in aerial weight. It is filed as functional. Further details: concentration or dose not given beside the values.
For series [3], the system named is Triticum aestivum. The experiment in a line: Pre-emergence herbicidal activity against Triticum aestivum L. (wheat) assessed change in radicular weight. It is filed as functional. Further details: concentration or dose not given beside the values.
Series [4] can be described thus: Retention factor, logKw of the compound in pure aqueous mobile phases by RP-HPLC method. In kind it is physicochemical. The settings on record: buffer.

Take `O=Cc1c(-c2ccccc2)no[n+]1[O-]`: the values for the Activity in series [1], in series [2] and in series [3] were -1.2%, -4% and 18%, respectively.

`NC(=S)N/N=C/c1c(-c2ccccc2)no[n+]1[O-]` yielded a logKw in series [4] of 3.24. In addition, the Activity is listed as -1.03% in series [1], -30% in series [2] and 8% in series [3].

`O=Cc1ccc2c(c1)no[n+]2[O-]` came in with a logKw in series [4] of 2.4. For the same compound, the Activity in series [1] is reported as -0.93%; in series [2], -30%; in series [3], -5%.

With `O=C(O)c1ccc2c(c1)no[n+]2[O-]`, the values for the Activity in series [2] and in series [3] were -16% and -9%, respectively.

In series [4], `Cc1ccc2c(c1)no[n+]2[O-]` returned a logKw of 2.18. The Activity in series [1] is listed as -2%; in series [2], -58%; in series [3], -58%.

Take `COC(=O)N/N=C\c1ccc2c(c1)no[n+]2[O-]`: the logKw in series [4] was 2.02. Further, the Activity in series [1] is -1.17%; in series [2], -6%; in series [3], 13%.

With `COCCNC(=O)N/N=C\c1ccc2c(c1)no[n+]2[O-]`, in series [4], the logKw turned out to be 2.31. Further, in series [1], the Activity is -1.1%.

With `COC(=O)N/N=C/c1c(-c2ccccc2)no[n+]1[O-]`, the logKw in series [4] is 3.34. Moreover, the Activity in series [1] was -1.19%; in series [2], -22%; in series [3], 16%.

Compound `COC(=O)N/N=C/c1ccc2nonc2c1` registered a logKw in series [4] of 2.21. The figures for the Activity in series [2] and in series [3] were 35% and 20%, respectively.

Turning to `Cc1c(/C=N/NC(=O)NC2CCCCC2)no[n+]1[O-]`, the logKw in series [4] turned out to be 4.39. In addition, the Activity in series [1] is reported as -1.59%; in series [2], -50%; in series [3], -85%.

In turn, `[O-][n+]1onc(-c2ccccc2)c1CCl` displayed a logKw in series [4] of 4.24. Besides, the values for the Activity in series [1], in series [2] and in series [3] were -0.99%, -4% and -7%, respectively.

For `COC(=O)N/N=C/c1no[n+]([O-])c1C`, in series [4], the logKw is recorded as 1.47. Besides, the Activity is on record as -2.08% in series [1], -50% in series [2] and -50% in series [3].

With `Cc1c(/C=N/NC(N)=S)no[n+]1[O-]`, in series [4], the logKw is reported as 1.18. The Activity in series [3] is listed as -95%.

On to `COCCNC(=O)c1ccc2c(c1)no[n+]2[O-]`, for which the logKw in series [4] came to 1.46. Moreover, the Activity in series [1] was -1.54%; in series [2], -23%; in series [3], -2%.

Turning to `[O-][n+]1onc(-c2ccccc2)c1CN1CCN(c2ncccn2)CC1`, the Activity in series [1] is -1.22%; in series [2], 0%; in series [3] it was 0%.

In the case of `Cc1c(C=O)no[n+]1[O-]`, in series [4], the logKw is on record as 0.22. The Activity was -1.62% in series [1], -5% in series [2] and -5% in series [3].

`CCCCNC(=O)c1ccc2c(c1)no[n+]2[O-]` showed a logKw in series [4] of 2.74. Besides, the values for the Activity in series [1], in series [2] and in series [3] were -1.54%, -71% and -66%, respectively.

Regarding `O=C(c1ccc2c(c1)no[n+]2[O-])N1CCOCC1`, the logKw in series [4] turned out to be 1.27. The results for the Activity in series [1], in series [2] and in series [3] were -2.06%, -55% and -52%, respectively.

Regarding `O=C(Nc1ccc(Cl)cc1)c1ccc2c(c1)no[n+]2[O-]`, the Activity is -1.43% in series [1], -50% in series [2] and -73% in series [3].
